PubChem BioAssay AID1259407 (Chemical Carcinogenesis Research Information System (CCRIS), 2018)
Calls of active or inactive are those of the source. How the calls were made is not given here.

System: CCRIS mutagenicity, Ames/micronucleus/aberration tests
Assay: CCRIS mutagenicity studies
[1] = Test System: AMES SALMONELLA TYPHIMURIUM, Strain/Indicator: TA98, Metabolic Activation: NONE, Method: STANDARD PLATE
[2] = Test System: AMES SALMONELLA TYPHIMURIUM, Strain/Indicator: TA98, Metabolic Activation: RAT, LIVER, S-9, AROCLOR 1254, Method: STANDARD PLATE
[3] = Test System: AMES SALMONELLA TYPHIMURIUM, Strain/Indicator: TA100, Metabolic Activation: NONE, Method: STANDARD PLATE
[4] = Test System: AMES SALMONELLA TYPHIMURIUM, Strain/Indicator: TA100, Metabolic Activation: RAT, LIVER, S-9, AROCLOR 1254, Method: STANDARD PLATE
[5] = Test System: AMES SALMONELLA TYPHIMURIUM, Strain/Indicator: TA1535, Metabolic Activation: NONE, Method: STANDARD PLATE
[6] = Test System: AMES SALMONELLA TYPHIMURIUM, Strain/Indicator: TA1535, Metabolic Activation: RAT, LIVER, S-9, AROCLOR 1254, Method: STANDARD PLATE
[7] = Test System: AMES SALMONELLA TYPHIMURIUM, Strain/Indicator: TA1537, Metabolic Activation: NONE, Method: STANDARD PLATE
[8] = Test System: AMES SALMONELLA TYPHIMURIUM, Strain/Indicator: TA1537, Metabolic Activation: RAT, LIVER, S-9, AROCLOR 1254, Method: STANDARD PLATE
[9] = Test System: AMES SALMONELLA TYPHIMURIUM, Strain/Indicator: TA1538, Metabolic Activation: NONE, Method: STANDARD PLATE
[10] = Test System: AMES SALMONELLA TYPHIMURIUM, Strain/Indicator: TA1538, Metabolic Activation: RAT, LIVER, S-9, AROCLOR 1254, Method: STANDARD PLATE

Question: What does the source list for `N#Cc1ccccc1`?
Answer: mutagenic call (End Point: IN VITRO MICRONUCLEUS, Test System: CHINESE HAMSTER V79, Metabolic Activation: NONE): active; positive; mutagenic call (Test System: AMES SALMONELLA TYPHIMURIUM, Strain/Indicator: TA97, Metabolic Activation: HAMSTER, LIVER, S-9, AROCLOR 1254 (10 OR 30%), Method: PREINCUBATION): inactive; negative; mutagenic call (Test System: AMES SALMONELLA TYPHIMURIUM, Strain/Indicator: TA97, Metabolic Activation: NONE, Method: PREINCUBATION): inactive; negative; mutagenic call (Test System: AMES SALMONELLA TYPHIMURIUM, Strain/Indicator: TA97, Metabolic Activation: RAT, LIVER, S-9, AROCLOR 1254 (10 OR 30%), Method: PREINCUBATION): inactive; negative; mutagenic call (Test System: AMES SALMONELLA TYPHIMURIUM, Strain/Indicator: TA98, Metabolic Activation: HAMSTER, LIVER, S-9, AROCLOR 1254 (10 OR 30%), Method: PREINCUBATION): inactive; negative; mutagenic call (Test System: AMES SALMONELLA TYPHIMURIUM, Strain/Indicator: TA98, Metabolic Activation: HAMSTER, LIVER, S-9, AROCLOR 1254, Method: STANDARD PLATE): inactive; negative; mutagenic call (Test System: AMES SALMONELLA TYPHIMURIUM, Strain/Indicator: TA98, Metabolic Activation: NONE, Method: PREINCUBATION): inactive; negative; mutagenic call [1]: inactive; negative; mutagenic call (Test System: AMES SALMONELLA TYPHIMURIUM, Strain/Indicator: TA98, Metabolic Activation: RAT LIVER S-9, PHENOBARBITAL AND BETA-NAPHTHOFLAVONE, Method: PREINCUBATION): inactive; negative; mutagenic call (Test System: AMES SALMONELLA TYPHIMURIUM, Strain/Indicator: TA98, Metabolic Activation: RAT, LIVER, S-9, AROCLOR 1254 (10 OR 30%), Method: PREINCUBATION): inactive; negative; mutagenic call [2]: inactive; negative; mutagenic call (Test System: AMES SALMONELLA TYPHIMURIUM, Strain/Indicator: TA100, Metabolic Activation: HAMSTER, LIVER, S-9, AROCLOR 1254 (10 OR 30%), Method: PREINCUBATION): inactive; negative; mutagenic call (Test System: AMES SALMONELLA TYPHIMURIUM, Strain/Indicator: TA100, Metabolic Activation: HAMSTER, LIVER, S-9, AROCLOR 1254, Method: STANDARD PLATE): inactive; negative; mutagenic call (Test System: AMES SALMONELLA TYPHIMURIUM, Strain/Indicator: TA100, Metabolic Activation: NONE, Method: PREINCUBATION): inactive; negative; mutagenic call [3]: inactive; negative; mutagenic call (Test System: AMES SALMONELLA TYPHIMURIUM, Strain/Indicator: TA100, Metabolic Activation: RAT LIVER S-9, PHENOBARBITAL AND BETA-NAPHTHOFLAVONE, Method: PREINCUBATION): inactive; negative; mutagenic call (Test System: AMES SALMONELLA TYPHIMURIUM, Strain/Indicator: TA100, Metabolic Activation: RAT, LIVER, S-9, AROCLOR 1254 (10 OR 30%), Method: PREINCUBATION): inactive; negative; mutagenic call [4]: inactive; negative; mutagenic call (Test System: AMES SALMONELLA TYPHIMURIUM, Strain/Indicator: TA1535, Metabolic Activation: HAMSTER, LIVER, S-9, AROCLOR 1254 (10 OR 30%), Method: PREINCUBATION): inactive; negative; mutagenic call (Test System: AMES SALMONELLA TYPHIMURIUM, Strain/Indicator: TA1535, Metabolic Activation: HAMSTER, LIVER, S-9, AROCLOR 1254, Method: STANDARD PLATE): inactive; negative; mutagenic call (Test System: AMES SALMONELLA TYPHIMURIUM, Strain/Indicator: TA1535, Metabolic Activation: NONE, Method: PREINCUBATION): inactive; negative; mutagenic call [5]: inactive; negative; mutagenic call (Test System: AMES SALMONELLA TYPHIMURIUM, Strain/Indicator: TA1535, Metabolic Activation: RAT LIVER S-9, PHENOBARBITAL AND BETA-NAPHTHOFLAVONE, Method: PREINCUBATION): inactive; negative; mutagenic call (Test System: AMES SALMONELLA TYPHIMURIUM, Strain/Indicator: TA1535, Metabolic Activation: RAT, LIVER, S-9, AROCLOR 1254 (10 OR 30%), Method: PREINCUBATION): inactive; negative; mutagenic call [6]: inactive; negative; mutagenic call (Test System: AMES SALMONELLA TYPHIMURIUM, Strain/Indicator: TA1537, Metabolic Activation: HAMSTER, LIVER, S-9, AROCLOR 1254, Method: STANDARD PLATE): inactive; negative; mutagenic call (Test System: AMES SALMONELLA TYPHIMURIUM, Strain/Indicator: TA1537, Metabolic Activation: NONE, Method: PREINCUBATION): inactive; negative; mutagenic call [7]: inactive; negative; mutagenic call (Test System: AMES SALMONELLA TYPHIMURIUM, Strain/Indicator: TA1537, Metabolic Activation: RAT LIVER S-9, PHENOBARBITAL AND BETA-NAPHTHOFLAVONE, Method: PREINCUBATION): inactive; negative; mutagenic call [8]: inactive; negative; mutagenic call (Test System: AMES SALMONELLA TYPHIMURIUM, Strain/Indicator: TA1538, Metabolic Activation: HAMSTER, LIVER, S-9, AROCLOR 1254, Method: STANDARD PLATE): inactive; negative; mutagenic call [9]: inactive; negative; mutagenic call [10]: inactive; negative; mutagenic call (Test System: E. COLI, Strain/Indicator: WP2UVRA, Metabolic Activation: NONE, Method: PREINCUBATION): inactive; negative; mutagenic call (Test System: E. COLI, Strain/Indicator: WP2UVRA, Metabolic Activation: RAT LIVER S-9, PHENOBARBITAL AND BETA-NAPHTHOFLAVONE, Method: PREINCUBATION): inactive; negative; mutagenic call (Test System: MOUSE LYMPHOMA, Strain/Indicator: L5178Y (TK+/TK-), Metabolic Activation: NONE, Method: SUSPENSION/PLATE): inactive; negative. reevaluation of results: negative; mutagenic call (Test System: MOUSE LYMPHOMA, Strain/Indicator: L5178Y (TK+/TK-), Metabolic Activation: RAT, LIVER, S-9, AROCLOR 1254, Method: SUSPENSION/PLATE): inactive; negative. reevaluation of results: negative

Question: What does the source list for `O=C([O-])[C@H](O)[C@@H](O)[C@H](O)[C@H](O)CO.O=C([O-])[C@H](O)[C@@H](O)[C@H](O)[C@H](O)CO.[Mn+2]`?
Answer: mutagenic call [1]: inactive; negative; mutagenic call [2]: inactive; negative; mutagenic call [3]: inactive; negative; mutagenic call [4]: inactive; negative; mutagenic call [5]: inactive; negative; mutagenic call [6]: inactive; negative; mutagenic call [7]: inactive; negative; mutagenic call [8]: inactive; negative; mutagenic call [9]: inactive; negative; mutagenic call [10]: inactive; negative; mutagenic call (Test System: E. COLI, Strain/Indicator: WP2, Metabolic Activation: NONE, Method: STANDARD PLATE): inactive; negative; mutagenic call (Test System: E. COLI, Strain/Indicator: WP2, Metabolic Activation: RAT, LIVER, S-9, AROCLOR 1254, Method: STANDARD PLATE): inactive; negative
